Assay results taken from US4994488A, “Novel imidate insecticides” (ICI Americas Inc., priority 1989, dated 1991).

Assays:
Assay type in all cases: in vivo
[1] = test system: two-spotted mite [Tetranychus urticae (Koch)], eggs; test: Two-spotted mite acaricidal test, eggs (2SM-E); conditions: percent of test compound in solution; nymphs hatching from eggs; 5-7 days
Description: (§1) The compounds in Table 1 above were tested for insecticidal activity using the following testing procedures. LC50 values, based on the results of these tests and calculated according to dosage-mortality curves, are expressed in Table 2.
(§2) Acaricidal Evaluation Test
(§3) The two-spotted mite (2SM) [Tetranychus urticae (Koch)]was employed in tests for miticides. The test procedure was as follows:
(§4) Pinto bean plants (Phaseolus sp.), approximately 10 cm tall, were transplanted into sandy loam soil in small cups and thoroughly infested with two-spotted mites of mixed ages and sexes. Twenty-four hours later the infested plants were inverted and dipped for 2-3 seconds in 50--50 acetone-water solutions of the test compound. Treated plants were held in the greenhouse, and 5-7 days later mortality was determined for both adult mites and the nymphs hatching from eggs which were on the plants at the time of treatment. Test concentrations ranged from 0.05% downward. The LC-50 value is expressed below in Table 2 under the headings "2SM-A" (i.e., adults) and "2SM-E" (i.e. eggs) in terms of percent concentration of the test compound in the solution.

[2] = test system: Tobacco Budworm [Heliothis virescens (Fabricius)], eggs; test: Tobacco budworm egg test (TBW-E); conditions: percent of test compound in solution; 2-day old eggs
Description: (§5) The compounds in Table 1 above were tested for insecticidal activity using the following testing procedures.
(§6) Tobacco Budworm [Heliothis virescens (Fabricius)]
(b). Eggs: Paper towel patches of 2-day old eggs of the tobacco budworm were dipped in acetone solutions of the test compound and placed in petri dishes containing a portion of larval rearing medium. […] Test concentrations ranged from 0.1% downward. The LC-50 value is expressed below in Table 2 under the heading "TBW-E" in terms of percent of the test compound in the solution.

[3] = test system: Western Spotted Cucumber Beetle Larvae [Diabrotica undecimpunctata undecimpunctata (Mannherheim)]; test: Western spotted cucumber beetle larvae soil test (Diabrotica); conditions: ppm of test compound in the soil
Description: as §1
Western Spotted Cucumber Beetle Larvae[Diabrotica undecimpunctata undecimpunctata (Mannherheim)]
Ten grams of moist potting soil was placed in a plastic cup. The test compound was dissolved in acetone. A 0.05 ml aliquot of the test sample, diluted to the desired concentration, was added to the soil. The cup was capped and the soil was mixed on a vortex mixer for approximately 15 seconds. An indentation was made on the surface of the soil and approximately 50 Diabrotica eggs were added. The eggs were covered with soil and maintained at room temperature (approximately 70° F. or 21° C.). Four days later a section of Romaine lettuce (Latuca sativa) leaf was placed in the treated cups. One week later the cups were examined for live larvae. TEst concentrations ranged from 25 ppm downward. The LC-50 value is expressed below in Table 2 under the heading "Diabrotica" in terms of ppm of the test compound in the soil.

[4] = test system: Beet Armyworm (Spodoptera exigua); test: Beet armyworm test (BAW); conditions: percent of test compound in solution; second-instar larvae; five days
Description: as §1
Beet Armyworm (Spodoptera exigua)
Test compounds were diluted in a 50--50 acetone-water solution. Young leaves of sugar beets (Beta vulgaris) were immersed in the test solutions for 2-3 seconds and placed on a wire screen to dry. The dried leaves were placed in petri dishes containing a moistened filter paper and infested with five second-instar beet armyworm larvae. The dishes were placed in a high humidity chamber. Mortality of the larvae was recorded five days later. Test concentrations ranged from 0.1% downward. The LC-50 values are expressed below in Table 2 under the heading "BAW" in terms of percent of the test compound in solution.

[5] = test system: Tobacco Budworm [Heliothis virescens (Fabricius)], larvae; test: Tobacco budworm contact test, larvae (TBW-C); conditions: percent of test compound in solution; second-instar larvae; 5 days
Description: as §1, §6
(a) Contact: Test compounds were diluted in a 50--50 acetonewater solution. Cotton (Gossypium sp.) cotyledons were immersed in the test solutions for 2-3 seconds and placed on a wire screen to dry. The dried leaves were placed in petri dishes containing a moistened piece of filter paper and infested with 5 second-instar tobacco budworm larvae. The dishes were placed in a high humidity chamber for 5 days, and percent mortality of the larvae recorded. Test concentrations ranged from 0.1% downward. The LC-50 values are expressed below in Table 2 under the heading "TBW-C" in terms of percent of the test compound in the solution.

[6] = test system: two-spotted mite [Tetranychus urticae (Koch)], adults; test: Two-spotted mite acaricidal test, adults (2SM-A); conditions: percent of test compound in solution, 5-7 days
Description: as §1, §2, §3, §4

[7] = test system: Black Bean Aphid [Aphis fabae (Scop.)]; test: Black bean aphid insecticidal test (BBA), foliar spray; conditions: percent of test compound in sprayed solution; 48 hours
Description: as §5

[8] = test system: Maize weevil (Sitophilus zeamais [Motschulsky]); test: Maize weevil test on treated corn seeds; conditions: 0.01% test solution, 48 hours, about 25° C.
Description: Maize weevil (Sitophilus zeamais [Motschulsky])
Test compounds were diluted in a 50:50 acetone:water solution to a concentration of 0.01%. Four corn seeds [Zea mays, (L.)]which had been immersed in test solutions for 2-3 seconds and allowed to dry were placed in covered containers at a temperature of about 25° C. Mortality was recorded after 48 hours.

[9] = test system: Cabbage Looper [Trichoplusia ni (Hubner)]; test: Cabbage looper test (CL); conditions: percent of test compound in solution; second-instar larvae; 3-5 days
Description: as §5
Cabbage Looper [Trichoplusia ni (Hubner)]
The test compound was diluted in a 50--50 acetone-water solution. Cotyledons of hyzini squash (Calabacita abobrinha), approximately 1×1.5 inches, were immersed in the test solutions for 2-3 seconds and placed on a wire screen to dry. The dried leaves were placed in petri dished containing a moistened piece of filter paper and infested with 5 secondinstar cabbage looper larvae. The dished were placed in a high humidity chamber. Mortality of the larvae was recorded 3-5 days later. Test concentrations ranged from 0.1% downward. The LC-50 value is expressed below in Table 2 under the heading "CL" in terms of percent of the test compound in solution.

[10] = test system: Housefly [Musca domestica]; test: Housefly insecticidal test (HF); conditions: per 25 female houseflies; mortality at 48 hours
Description: as §1
Housefly [Musca domestica]
The test compound was diluted in acetone and aliquots pipetted onto the bottom of aluminum dishes. To ensure even spreading of the chemical on the bottom of the dishes, 1 ml of acetone containing 0.01% peanut oil was also added to each dish. After all solvents had evaporated, the dishes were placed in circular cardboard cages containing 25 female houseflies, 1-2 days old. The cages were covered on the bottom with cellophane and on the top with tulle netting, and each contained a sugar-water saturated cotton plug for maintenance of the flies. Mortality was recorded after 48 hours. Test levels ranged from 100 μg/25 female houseflies downward. The LC-50 value is expressed below in Table 2 under the heading "HF", in terms of μg of the test compound per 25 female flies.

[11] = test system: Aster Leafhopper [Macrosteles fascifrens (Stal)]; test: Contact residue assay on the aster leafhopper (LH); conditions: percent of test compound in solution; adults/nymphs; 48 hours
Description: as §1
Contact Residue Assay on the Aster Leafhopper [Macrosteles fascifrens (Stal)]
Oat seedlings (Avena sp) were grown in a commercial potting soil in cups. When the plants were approximately 10 cm tall they were thinned to three plants per cup and dipped for 2-3 seconds in 50--50 acetone-water solutions of the test compounds. When the plants had dried, a clear plastic tube was placed over them and the bottom end pressed into the cup. Ten aster leafhopper adults/nymphs were then placed in each tube and the tops of the tubes covered with white organdy cloth. Mortality counts were made after 48 hours. Test concentrations ranged from 0.05% down to that at which 50% mortality occurred. The LC50 values are expressed below in Table 2 under the heading "LH" in terms of the percent of the test compound in the solution.

SMILES | LC50 2-SM E (eggs) [1] [%] | LC50 TBW E (eggs) [2] [%] | LC50 Diabrotica [3] | LC50 BAW [4] [%] | LC50 TBW C (contact) [5] [%] | LC50 2-SM A (adults) [6] [%] | LC50 BBA [7] [%] | mortality at 0.01 % [8] [%] | LC50 CL [9] [%] | LC50 HF [10] [µg] | LC50 LH [11] [%]
CC1(C(=Nc2ccc(Cl)cc2)OCc2cccc(Oc3ccccc3)c2)CC1 [Compound 1] | > 0.05 | 0.05 | > 25 ppm (soil) | 0.025 | 0.008 | > 0.05 |  |  |  |  | 
CC1CC1C(=Nc1ccc(Cl)cc1)OCc1cccc(Oc2ccccc2)c1 (stereo not shown) [Compound 2] | > 0.05 | > 0.01 | > 25 ppm (soil) |  |  | > 0.05 |  |  |  |  | 
Clc1cccc(N=C(OCc2cccc(Oc3ccccc3)c2)C2CC2)c1 [Compound 3] | > 0.05 | 0.1 | > 25 ppm (soil) |  |  | > 0.05 |  |  |  |  | 
Clc1ccc(N=C(OCc2cccc(Oc3ccccc3)c2)C2CC2)cc1 [Compound 4, N-(4-Chlorophenyl)-O-(3-phenoxybenzyl)cyclopropylcarboximidate] | 0.05 | 0.1 | > 25 ppm (soil) |  | 0.006 | 0.01 |  |  |  |  | 
Fc1ccc(N=C(OCc2cccc(Oc3ccccc3)c2)C2CC2)cc1 [Compound 5] | 0.05 | 0.08 | > 25 ppm (soil) |  | 0.01 | 0.05 |  |  |  |  | 
FC(F)(F)c1ccc(N=C(OCc2cccc(Oc3ccccc3)c2)C2CC2)cc1 [Compound 6] | > 0.05 | 0.025 | 25 ppm (soil) |  | 0.0015 | 0.01 |  |  |  |  | 
FC(F)(F)Oc1ccc(N=C(OCc2cccc(Oc3ccccc3)c2)C2CC2)cc1 [Compound 7] | 0.01 | 0.05 | 17 ppm (soil) |  | 0.001 | 0.01 |  |  |  |  | 
FC(F)(F)c1ccc(N=C(OCc2cccc(Oc3ccccc3)c2)C2CC2)c(Cl)c1 [Compound 8] | > 0.05 | > 0.1 | 25 ppm (soil) |  | 0.1 | > 0.05 |  |  |  |  | 
FC(F)(F)c1cccc(N=C(OCc2cccc(Oc3ccccc3)c2)C2CC2)c1 [Compound 9] | > 0.05 | > 0.1 | > 25 ppm (soil) |  |  | > 0.05 | > 0.05 |  |  |  | 
Fc1ccc(N=C(OCc2cccc(Oc3ccccc3)c2)C2CC2)cc1Cl [Compound 10] | > 0.05 | 0.1 | > 25 ppm (soil) |  |  | > 0.05 |  |  |  |  | 
Fc1ccc(Oc2cccc(COC(=Nc3ccc(F)c(Cl)c3)C3CC3)c2)cc1 [Compound 11] | > 0.05 | 0.05 | > 25 ppm (soil) | > 0.1 |  | > 0.05 |  |  |  |  | 
CC1(C)C(C(=Nc2ccc(F)c(Cl)c2)OCc2cccc(Oc3ccccc3)c2)C1(C)C [Compound 12] | 0.05 | > 0.01 | > 25 ppm (soil) |  |  | 0.05 |  |  |  |  | 
c1ccc(Oc2cccc(COC(=Nc3ccc4c(c3)OCO4)C3CC3)c2)cc1 [Compound 13] | > 0.05 | > 0.01 | > 25 ppm (soil) |  |  | > 0.05 |  | 50 | 0.002 |  | 
CC(C)(C)c1ccc(N=C(OCc2cccc(Oc3ccc(F)cc3)c2)C2CC2)cc1 [Compound 14] | 0.02 | > 0.1 | > 25 ppm (soil) |  |  | 0.02 |  |  | 0.017 | > 100 | > 0.05
Fc1ccc(COC(=Nc2ccc(C(F)(F)F)cc2)C2CC2)cc1Oc1ccccc1 [Compound 15] | < 0.05 | 0.017 | > 25 ppm (soil) |  |  | < 0.05 |  | 50 |  |  | 
Fc1ccc(COC(=Nc2ccc(C(F)(F)F)cc2)C2CC2)cc1Oc1ccc(Cl)cc1 [Compound 16] | > 0.05 | 0.023 | > 25 ppm (soil) |  |  | > 0.05 |  |  |  |  | 
